The NIST ThermoML archive (doi:10.1016/j.jct.2006.08.002)
Where “and” joins values, the source holds several entries; their conditions need not be identical. Identical values can stand only once.

Assay: xn = mol fraction of the nth substance listed
Conditions: Fluid (supercritical or subcritical phases), Constant-volume piezometry

CCO [ethanol] + O
Conditions | mass density
524.15 K, 7270 kPa, x1 = 0.8 | 383.33 kg/m3
525.15 K, 7460 kPa, x1 = 0.8 | 383.31 kg/m3
526.15 K, 7550 kPa, x1 = 0.8 | 367.95 kg/m3
528.15 K, 7710 kPa, x1 = 0.8 | 312.86 kg/m3
528.15 K, 7870 kPa, x1 = 0.8 | 367.91 kg/m3
528.15 K, 8040 kPa, x1 = 0.8 | 383.24 kg/m3
528.15 K, 8410 kPa, x1 = 0.8 | 406.33 kg/m3
531.15 K, 8420 kPa, x1 = 0.8 | 367.86 kg/m3
533.15 K, 4750 kPa, x1 = 0.8 | 53.24 kg/m3
533.15 K, 7070 kPa, x1 = 0.5 | 84.52 kg/m3
533.15 K, 7100 kPa, x1 = 0.8 | 115.14 kg/m3
533.15 K, 8140 kPa, x1 = 0.8 | 188.77 kg/m3
533.15 K, 8270 kPa, x1 = 0.8 | 244.11 kg/m3 and 260.96 kg/m3
533.15 K, 8350 kPa, x1 = 0.8 | 284.34 kg/m3
533.15 K, 8420 kPa, x1 = 0.8 | 312.77 kg/m3
533.15 K, 8440 kPa, x1 = 0.8 | 307.44 kg/m3
533.15 K, 8750 kPa, x1 = 0.8 | 367.82 kg/m3
533.15 K, 8990 kPa, x1 = 0.8 | 383.14 kg/m3
533.15 K, 9460 kPa, x1 = 0.8 | 406.22 kg/m3
533.15 K, 10480 kPa, x1 = 0.8 | 440.21 kg/m3
533.15 K, 10860 kPa, x1 = 0.8 | 446.58 kg/m3
533.15 K, 17410 kPa, x1 = 0.8 | 516.16 kg/m3
538.15 K, 9170 kPa, x1 = 0.8 | 312.69 kg/m3
538.15 K, 27310 kPa, x1 = 0.8 | 553.51 kg/m3
543.15 K, 4920 kPa, x1 = 0.8 | 53.21 kg/m3
543.15 K, 7570 kPa, x1 = 0.5 | 84.48 kg/m3
543.15 K, 7610 kPa, x1 = 0.8 | 115.08 kg/m3
543.15 K, 9020 kPa, x1 = 0.8 | 188.68 kg/m3
543.15 K, 9530 kPa, x1 = 0.8 | 260.83 kg/m3
543.15 K, 9680 kPa, x1 = 0.8 | 284.19 kg/m3
543.15 K, 9920 kPa, x1 = 0.8 | 312.61 kg/m3
543.15 K, 10630 kPa, x1 = 0.8 | 367.62 kg/m3
543.15 K, 10940 kPa, x1 = 0.8 | 382.93 kg/m3
543.15 K, 11670 kPa, x1 = 0.8 | 406 kg/m3
548.15 K, 7850 kPa, x1 = 0.8 | 115.06 kg/m3
548.15 K, 9420 kPa, x1 = 0.8 | 188.63 kg/m3
548.15 K, 9680 kPa, x1 = 0.5 | 294.01 kg/m3
548.15 K, 9720 kPa, x1 = 0.5 | 327.56 kg/m3
548.15 K, 9980 kPa, x1 = 0.8 | 243.92 kg/m3
548.15 K, 10390 kPa, x1 = 0.5 | 421.66 kg/m3
548.15 K, 10630 kPa, x1 = 0.8 | 307.19 kg/m3
548.15 K, 10680 kPa, x1 = 0.8 | 312.53 kg/m3
548.15 K, 11790 kPa, x1 = 0.5 | 464.07 kg/m3
548.15 K, 11950 kPa, x1 = 0.8 | 382.83 kg/m3
548.15 K, 14420 kPa, x1 = 0.8 | 439.83 kg/m3
548.15 K, 14800 kPa, x1 = 0.8 | 446.2 kg/m3
548.15 K, 17240 kPa, x1 = 0.5 | 522.28 kg/m3
548.15 K, 26570 kPa, x1 = 0.5 | 568.89 kg/m3
548.15 K, 30490 kPa, x1 = 0.5 | 581.74 kg/m3
553.15 K, 5080 kPa, x1 = 0.8 | 53.19 kg/m3
553.15 K, 6130 kPa, x1 = 0.5 | 55.97 kg/m3
553.15 K, 7190 kPa, x1 = 0.5 | 69.28 kg/m3
553.15 K, 7970 kPa, x1 = 0.5 | 84.44 kg/m3
553.15 K, 9210 kPa, x1 = 0.5 | 117.47 kg/m3
553.15 K, 10090 kPa, x1 = 0.5 | 171.33 kg/m3
553.15 K, 10330 kPa, x1 = 0.5 | 234.67 kg/m3
553.15 K, 10520 kPa, x1 = 0.5 | 327.48 kg/m3
553.15 K, 10600 kPa, x1 = 0.5 | 293.93 kg/m3
553.15 K, 10890 kPa, x1 = 0.5 | 385.77 kg/m3
553.15 K, 11430 kPa, x1 = 0.8 | 312.45 kg/m3
553.15 K, 11790 kPa, x1 = 0.5 | 424.77 kg/m3
553.15 K, 11850 kPa, x1 = 0.5 | 419.86 kg/m3
553.15 K, 12540 kPa, x1 = 0.8 | 367.42 kg/m3
553.15 K, 13460 kPa, x1 = 0.5 | 463.93 kg/m3
553.15 K, 19450 kPa, x1 = 0.5 | 522.11 kg/m3
553.15 K, 25160 kPa, x1 = 0.8 | 515.53 kg/m3
553.15 K, 25720 kPa, x1 = 0.5 | 555.9 kg/m3
553.15 K, 47100 kPa, x1 = 0.5 | 614.98 kg/m3
558.15 K, 8310 kPa, x1 = 0.8 | 115 kg/m3
558.15 K, 10340 kPa, x1 = 0.8 | 188.54 kg/m3
558.15 K, 11380 kPa, x1 = 0.8 | 260.63 kg/m3
558.15 K, 11700 kPa, x1 = 0.8 | 283.97 kg/m3
558.15 K, 13990 kPa, x1 = 0.8 | 382.62 kg/m3
558.15 K, 15170 kPa, x1 = 0.8 | 405.66 kg/m3
563.15 K, 6360 kPa, x1 = 0.5 | 55.95 kg/m3
563.15 K, 7510 kPa, x1 = 0.5 | 69.25 kg/m3
563.15 K, 8400 kPa, x1 = 0.5 | 84.4 kg/m3
563.15 K, 8830 kPa, x1 = 0.2 | 67.68 kg/m3
563.15 K, 9900 kPa, x1 = 0.5 | 117.41 kg/m3
563.15 K, 11080 kPa, x1 = 0.5 | 171.24 kg/m3
563.15 K, 12360 kPa, x1 = 0.5 | 327.3 kg/m3
563.15 K, 12940 kPa, x1 = 0.8 | 312.28 kg/m3
563.15 K, 12970 kPa, x1 = 0.8 | 312.28 kg/m3
563.15 K, 13290 kPa, x1 = 0.5 | 385.56 kg/m3
563.15 K, 14460 kPa, x1 = 0.8 | 367.22 kg/m3
563.15 K, 16510 kPa, x1 = 0.5 | 463.66 kg/m3
563.15 K, 23620 kPa, x1 = 0.5 | 521.79 kg/m3
568.15 K, 9040 kPa, x1 = 0.2 | 67.66 kg/m3
573.15 K, 5420 kPa, x1 = 0.8 | 53.14 kg/m3
573.15 K, 6590 kPa, x1 = 0.5 | 55.92 kg/m3
573.15 K, 7820 kPa, x1 = 0.5 | 69.21 kg/m3
573.15 K, 8780 kPa, x1 = 0.5 | 84.36 kg/m3
573.15 K, 8990 kPa, x1 = 0.8 | 114.92 kg/m3
573.15 K, 10460 kPa, x1 = 0.5 | 117.35 kg/m3
573.15 K, 11580 kPa, x1 = 0.8 | 188.4 kg/m3
573.15 K, 12050 kPa, x1 = 0.5 | 171.15 kg/m3
573.15 K, 12840 kPa, x1 = 0.8 | 243.61 kg/m3
573.15 K, 13010 kPa, x1 = 0.5 | 234.43 kg/m3
573.15 K, 13190 kPa, x1 = 0.8 | 260.43 kg/m3
573.15 K, 13610 kPa, x1 = 0.5 | 293.62 kg/m3
573.15 K, 13720 kPa, x1 = 0.8 | 283.75 kg/m3
573.15 K, 14410 kPa, x1 = 0.8 | 306.79 kg/m3
573.15 K, 14490 kPa, x1 = 0.8 | 312.12 kg/m3
573.15 K, 15660 kPa, x1 = 0.5 | 385.34 kg/m3
573.15 K, 16440 kPa, x1 = 0.8 | 367.02 kg/m3
573.15 K, 16820 kPa, x1 = 0.5 | 419.39 kg/m3
573.15 K, 17060 kPa, x1 = 0.5 | 421.07 kg/m3
573.15 K, 17150 kPa, x1 = 0.8 | 382.31 kg/m3
573.15 K, 17210 kPa, x1 = 0.5 | 424.29 kg/m3
573.15 K, 18650 kPa, x1 = 0.8 | 405.32 kg/m3
573.15 K, 20120 kPa, x1 = 0.5 | 463.38 kg/m3
573.15 K, 21340 kPa, x1 = 0.8 | 439.21 kg/m3
573.15 K, 22500 kPa, x1 = 0.8 | 451.39 kg/m3
573.15 K, 28040 kPa, x1 = 0.5 | 521.47 kg/m3
573.15 K, 39960 kPa, x1 = 0.5 | 567.95 kg/m3
573.15 K, 44900 kPa, x1 = 0.5 | 580.76 kg/m3
577.15 K, 45760 kPa, x1 = 0.8 | 552.13 kg/m3
578.15 K, 23390 kPa, x1 = 0.8 | 445.43 kg/m3
578.15 K, 35170 kPa, x1 = 0.8 | 514.74 kg/m3
578.15 K, 38000 kPa, x1 = 0.5 | 555.01 kg/m3
593.15 K, 50760 kPa, x1 = 0.5 | 567.2 kg/m3
598.15 K, 5820 kPa, x1 = 0.8 | 53.08 kg/m3
598.15 K, 7080 kPa, x1 = 0.5 | 55.85 kg/m3
598.15 K, 8560 kPa, x1 = 0.5 | 69.13 kg/m3
598.15 K, 9720 kPa, x1 = 0.5 | 84.26 kg/m3
598.15 K, 10060 kPa, x1 = 0.8 | 114.78 kg/m3
598.15 K, 11840 kPa, x1 = 0.5 | 117.21 kg/m3
598.15 K, 12030 kPa, x1 = 0.2 | 90.05 kg/m3
598.15 K, 13600 kPa, x1 = 0.8 | 188.16 kg/m3
598.15 K, 14290 kPa, x1 = 0.2 | 138.08 kg/m3
598.15 K, 15290 kPa, x1 = 0.2 | 221.72 kg/m3
598.15 K, 15460 kPa, x1 = 0.2 | 286.74 kg/m3
